Structures can show the parent of a compound that is named as a salt.
Target: T1, MPO (purified from human polynuclear leukocytes) (Homo sapiens, UniProt P05164)
T1 construct: purified from human polynuclear leukocytes; purchased Calbiochem/EMD Biosciences; host or cells: human polynuclear leukocytes (natural source)
Assay: MPO Amplex Red Activity Assay
Format: biochemical
Details: Table 1, 2 μM H2O2, pH 7.4
Outline: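 Potency is given as kinact/KI: kobs values from 600 s progress curves, minus the uninhibited rate, are fit against inhibitor concentration. Reactions use 2 μM H2O2, 30 μM Amplex Red, pH 7.4 phosphate buffer with NaCl, DTPA and 2% DMSO, started with […] human MPO. Readout is resorufin fluorescence, catalase background subtracted.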

T1 sequence (P05164 279-745 limits assumed): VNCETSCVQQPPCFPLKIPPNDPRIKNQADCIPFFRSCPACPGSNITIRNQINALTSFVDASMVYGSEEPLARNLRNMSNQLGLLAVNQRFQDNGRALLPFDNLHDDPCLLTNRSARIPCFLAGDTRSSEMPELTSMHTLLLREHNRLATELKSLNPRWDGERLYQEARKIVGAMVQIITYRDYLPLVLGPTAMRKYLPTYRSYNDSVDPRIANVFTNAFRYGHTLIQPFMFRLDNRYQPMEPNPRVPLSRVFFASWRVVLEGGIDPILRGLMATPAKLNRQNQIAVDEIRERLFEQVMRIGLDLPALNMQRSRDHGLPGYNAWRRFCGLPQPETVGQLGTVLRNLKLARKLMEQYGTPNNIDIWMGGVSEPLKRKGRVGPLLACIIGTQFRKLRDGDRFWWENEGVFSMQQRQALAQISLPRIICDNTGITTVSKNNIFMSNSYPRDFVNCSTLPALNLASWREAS
T1 sequence (P05164 165-273 limits assumed): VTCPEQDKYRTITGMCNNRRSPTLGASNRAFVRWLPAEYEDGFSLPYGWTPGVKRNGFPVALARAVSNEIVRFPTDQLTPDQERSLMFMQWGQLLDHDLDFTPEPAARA

| SMILES | MPO kinact/Ki |
| --- | --- |
| COc1ccc(-c2cc(=O)[nH]c(=S)n2CCNC2=NCCN2)c(OC)c1 [Example 250, 1-[2-(4,5-dihydro-1H-imidazol-2-ylamino)ethyl]-6-(2,4-dimethoxyphenyl)-2-thioxo-2,3-dihydropyrimidin-4(1H)-one] | 7510 1/s per M |
| COc1ccc(-c2cc(=O)[nH]c(=S)n2CCN2CCOCC2)c(OC)c1 [Example 251, 6-(2,4-dimethoxyphenyl)-1-(2-morpholin-4-ylethyl)-2-thioxo-2,3-dihydropyrimidin-4(1H)-one] | 68 1/s per M |
| COc1ccc(-c2cc(=O)[nH]c(=S)n2CC2(O)CCNCC2)c(OC)c1 [Example 252, 6-(2,4-dimethoxyphenyl)-1-[(4-hydroxypiperidin-4-yl)methyl]-2-thioxo-2,3-dihydropyrimidin-4(1H)-one hydrochloride] | 2480 1/s per M |
| COc1ccc(-c2cc(=O)[nH]c(=S)n2CCCCNC(=N)N)c(OC)c1 [Example 253, 1-{4-[6-(2,4-dimethoxyphenyl)-4-oxo-2-thioxo-3,4-dihydropyrimidin-1(2H)-yl]butyl}guanidine] | 12700 1/s per M |
| COc1ccc(-c2cc(=O)[nH]c(=S)n2CC(=O)NCC(N)=O)c(OC)c1 [Example 254, N~2~-{[6-(2,4-dimethoxyphenyl)-4-oxo-2-thioxo-3,4-dihydropyrimidin-1(2H)-yl]acetyl}glycinamide] | 5630 1/s per M |
| COc1ccc(-c2cc(=O)[nH]c(=S)n2CCNC(=O)[C@@H](C)N)c(OC)c1 [Example 255, N-{2-[6-(2,4-dimethoxyphenyl)-4-oxo-2-thioxo-3,4-dihydropyrimidin-1(2H)-yl]ethyl}-D-alaninamide trifluoroacetate] | 3550 1/s per M |
| COc1ccc(-c2cc(=O)[nH]c(=S)n2CCNC(=O)[C@H](C)N)c(OC)c1 [Example 256, N-{2-[6-(2,4-dimethoxyphenyl)-4-oxo-2-thioxo-3,4-dihydropyrimidin-1(2H)-yl]ethyl}-L-alaninamide trifluoroacetate] | 6520 1/s per M |
| COc1ccc(-c2cc(=O)[nH]c(=S)n2CCNS(C)(=O)=O)c(OC)c1 [Example 257, N-{2-[6-(2,4-dimethoxyphenyl)-4-oxo-2-thioxo-3,4-dihydropyrimidin-1(2H)-yl]ethyl}methanesulfonamide] | 3700 1/s per M |
| COc1ccc(-c2cc(=O)[nH]c(=S)n2CC2CCCN2C(=N)N)c(OC)c1 (stereo not drawn) [Example 258, 2-{[6-(2,4-dimethoxyphenyl)-4-oxo-2-thioxo-3,4-dihydropyrimidin-1(2H)-yl]methyl}pyrrolidine-1-carboximidamide trifluoroacetate] | 1460 1/s per M |
| COc1ccc(-c2cc(=O)[nH]c(=S)n2CC2CCN(C(=N)N)C2)c(OC)c1 (stereo not drawn) [Example 259, 3-{[6-(2,4-dimethoxyphenyl)-4-oxo-2-thioxo-3,4-dihydropyrimidin-1(2H)-yl]methyl}pyrrolidine-1-carboximidamide trifluoroacetate] | 4000 1/s per M |
| COc1ccc(-c2cc(=O)[nH]c(=S)n2CCCC[C@H](N)C(N)=O)c(OC)c1 [Example 260, 6-[6-(2,4-dimethoxyphenyl)-4-oxo-2-thioxo-3,4-dihydropyrimidin-1(2H)-yl]norleucinamide hydrochloride] | 19700 1/s per M |
| COc1ccc(-c2cc(=O)[nH]c(=S)n2Cc2ccn(C(N)=S)n2)c(OC)c1 [Example 261, 3-{[6-(2,4-dimethoxyphenyl)-4-oxo-2-thioxo-3,4-dihydropyrimidin-1(2H)-yl]methyl}-1H-pyrazole-1-carbothioamide] | 2280 1/s per M |
| COc1ccc(-c2cc(=O)[nH]c(=S)n2CC2CCCN2C(=O)CN)c(OC)c1 (stereo not drawn) [Example 262, 6-(2,4-dimethoxyphenyl)-1-[(1-glycylpyrrolidin-2-yl)methyl]-2-thioxo-2,3-dihydropyrimidin-4(1H)-one hydrochloride] | 1730 1/s per M |
| COc1ccc(-c2cc(=O)[nH]c(=S)n2CCNC(=O)[C@@H](N)C(C)C)c(OC)c1 [Example 263, N-{2-[6-(2,4-dimethoxyphenyl)-4-oxo-2-thioxo-3,4-dihydropyrimidin-1(2H)-yl]ethyl}-L-valinamide trifluoroacetate] | 4340 1/s per M |
| COc1cccc(-c2cc(=O)[nH]c(=S)n2CCN)c1 [Example 264, 1-(2-aminoethyl)-6-(3-methoxyphenyl)-2-thioxo-2,3-dihydropyrimidin-4(1H)-one hydrochloride] | 3620 1/s per M |
| COc1cccc(-c2cc(=O)[nH]c(=S)n2CCCN)c1 [Example 265, 1-(3-aminopropyl)-6-(3-methoxyphenyl)-2-thioxo-2,3-dihydropyrimidin-4(1H)-one hydrochloride] | 3730 1/s per M |
| C=CCn1c(-c2ccc(OC)cc2OC)cc(=O)[nH]c1=S [Example 266, 1-allyl-6-(2,4-dimethoxyphenyl)-2-thioxo-2,3-dihydropyrimidin-4(1H)-one] | 604 1/s per M |
| COc1ccc(-c2cc(=O)[nH]c(=S)n2C[C@H]2CCCN2)c(OC)c1 [Example 267, 6-(2,4-dimethoxyphenyl)-1-[(2R)-pyrrolidin-2-ylmethyl]-2-thioxo-2,3-dihydropyrimidin-4(1H)-one hydrochloride] | 3840 1/s per M |

| SMILES | MPO kinact/Ki |
| --- | --- |
| COc1ccc(-c2cc(=O)[nH]c(=S)n2C[C@@H]2CCCN2)c(OC)c1 [Example 268, 6-(2,4-dimethoxyphenyl)-1-[(2S)-pyrrolidin-2-ylmethyl]-2-thioxo-2,3-dihydropyrimidin-4(1H)-one hydrochloride hydrochloride hydrochloride, hydrochloride hydrochloride …] | 6640 1/s per M |
| COc1ccc(-c2cc(=O)[nH]c(=S)n2CCOCCN)c(OC)c1 [Example 269, 1-[2-(2-aminoethoxy)ethyl]-6-(2,4-dimethoxyphenyl)-2-thioxo-2,3-dihydropyrimidin-4(1H)-one hydrochloride] | 9510 1/s per M |
| COc1ccc(-c2cc(=O)[nH]c(=S)n2CCCN=C(N)N)c(OC)c1 [Example 270, 2-{3-[6-(2,4-dimethoxyphenyl)-4-oxo-2-thioxo-3,4-dihydropyrimidin-1(2H)-yl]propyl}guanidine trifluoroacetate] | 20500 1/s per M |
| COCCc1ccccc1-c1cc(=O)[nH]c(=S)n1CCO [Example 271, 1-(2-hydroxyethyl)-6-[2-(2-methoxyethyl)phenyl]-2-thioxo-2,3-dihydropyrimidin-4(1H)-one] | 2010 1/s per M |
| NCCn1c(-c2ccccc2OCC(N)=O)cc(=O)[nH]c1=S [Example 272, 2-{2-[3-(2-aminoethyl)-6-oxo-2-thioxo-1,2,3,6-tetrahydropyrimidin-4-yl]phenoxy}acetamide trifluoroacetate] | 3160 1/s per M |
| COc1cc(-c2cc(=O)[nH]c(=S)n2CCO)c(OC)cc1C [Example 273, 6-(2,5-dimethoxy-4-methylphenyl)-1-(2-hydroxyethyl)-2-thioxo-2,3-dihydropyrimidin-4(1H)-one] | 8180 1/s per M |
| COc1ccc(-c2cc(=O)[nH]c(=S)n2CCO)c2ccccc12 [Example 274, 1-(2-hydroxyethyl)-6-(4-methoxy-1-naphthyl)-2-thioxo-2,3-dihydropyrimidin-4(1H)-one] | 22800 1/s per M |
| COCCn1c(-c2cc(OC)c(C)cc2OC)cc(=O)[nH]c1=S [Example 275, 6-(2,5-dimethoxy-4-methylphenyl)-1-(2-methoxyethyl)-2-thioxo-2,3-dihydropyrimidin-4(1H)-one] | 4730 1/s per M |
| COCCn1c(-c2ccc3ccccc3c2)cc(=O)[nH]c1=S [Example 276, 1-(2-methoxyethyl)-6-(2-naphthyl)-2-thioxo-2,3-dihydropyrimidin-4(1H)-one] | 6710 1/s per M |
| COCCn1c(-c2ccco2)cc(=O)[nH]c1=S [Example 277, 6-(2-furyl)-1-(2-methoxyethyl)-2-thioxo-2,3-dihydropyrimidin-4(1H)-one] | 767 1/s per M |
| COCCn1c(-c2ccn[nH]2)cc(=O)[nH]c1=S [Example 278, 1-(2-methoxyethyl)-6-(1H-pyrazol-5-yl)-2-thioxo-2,3-dihydropyrimidin-4(1H)-one] | 1560 1/s per M |
| COCCn1c(-c2cccnc2)cc(=O)[nH]c1=S [Example 279, 1-(2-methoxyethyl)-6-pyridin-3-yl-2-thioxo-2,3-dihydropyrimidin-4(1H)-one] | 386 1/s per M |
| COCCn1c(-c2cncnc2)cc(=O)[nH]c1=S [Example 280, 3-(2-methoxyethyl)-2-thioxo-2,3-dihydro-4,5′-bipyrimidin-6(1H)-one] | 430 1/s per M |
| COCCn1c(-c2cccn2C)cc(=O)[nH]c1=S [Example 281, 1-(2-methoxyethyl)-6-(1-methyl-1H-pyrrol-2-yl)-2-thioxo-2,3-dihydropyrimidin-4(1H)-one] | 1060 1/s per M |
| COCCn1c(-c2cccs2)cc(=O)[nH]c1=S [Example 282, 1-(2-methoxyethyl)-6-(2-thienyl)-2-thioxo-2,3-dihydropyrimidin-4(1H)-one] | 1180 1/s per M |
| COCCn1c(-c2cccc(C)c2)cc(=O)[nH]c1=S [Example 283, 1-(2-methoxyethyl)-6-(3-methylphenyl)-2-thioxo-2,3-dihydropyrimidin-4(1H)-one] | 2790 1/s per M |
| COCCn1c(-c2ccccc2C)cc(=O)[nH]c1=S [Example 284, 1-(2-methoxyethyl)-6-(2-methylphenyl)-2-thioxo-2,3-dihydropyrimidin-4(1H)-one] | 1470 1/s per M |
| COCCn1c(-c2ccc(C)cc2)cc(=O)[nH]c1=S [Example 285, 1-(2-methoxyethyl)-6-(4-methylphenyl)-2-thioxo-2,3-dihydropyrimidin-4(1H)-one] | 1750 1/s per M |

— US9399626B2, “2-thiopyrimidinones” (Pfizer Inc., priority 2011, dated 2016)
